Data published in patent publication US20260306429A1, “COMPOSITION FOR REDUCING METHANE PRODUCTION AND IMPROVING NITROGEN UTILIZATION EFFICIENCY OF RUMINANT ANIMALS COMPRISING HALOACETAMIDE AS ACTIVE INGREDIENT” (CHUNGANG UNIVERSITY INDUSTRY ACADEMIC COOPERATION FOUNDATION, priority 2024, published 2026).

What was measured:
[1] = in words; cited from earlier work
rumen fluid = test: In vitro incubation of rumen fluid: digestibility, fermentation characteristics, gas and methane production, VFA; assay type: cell-based, Hanwoo cows; details: 0.2 mmol/L; for A:P ratio (acetate:propionate ratio) / DMD (dry matter digestibility) / NDFD (neutral detergent fiber digestibility) / NH3—N (ammonia nitrogen) / pH / Acetate / Butyrate / Isobutyrate / Isovalerate / Propionate / Valerate / Total VFA (total volatile fatty acids) / methane-reducing effects: 24 h; for CH4 (methane production per gram of degraded dry matter) / CH4 (methane production) / TGP (total gas production): up to 24 h; for methane-reducing effects: in words, from Table 1
Method: (§1) Rumen fluid was sampled from Hanwoo cows at the Nonghyup Research Farm in Anseong, Gyeonggi Province, and mixed with buffer at a ratio of 1:2 within 1 hour of sampling. Oat hay was used as the forage, and pelleted feed for the middle fattening period was used as the concentrate. After grinding, the forage and concentrate were mixed at a ratio of 1:1 after passing through a 1-mm screen. 50 ml of culture medium was dispensed into 0.5 g of dry matter, and the control group and the five experimental groups (acrylamide, chloroacetamide, glycolamide, iodoacetamide, and propionamide) were each incubated for 24 hours with five replicates. The control group was incubated in 50 mL of culture medium, whereas the experimental groups were incubated in 49.9 mL of culture medium plus 0.1 mL of deionized water. For the five experimental groups, the supplementation level of each amide was set to 0.2 mmol/L (final concentration), and the amounts added were 1.4216 mg/g for acrylamide, 1.8702 mg/g for 2-chloroacetamide, 1.4618 mg/g for propionamide, 1.5014 mg/g for glycolamide, and 3.6992 mg/g for iodoacetamide.
(§2) Gas pressure was measured at 0, 3, 6, 12, and 24 hours (gas collection intervals), and the gas released during each measurement was collected to determine the total gas production and methane production up to the final 24 hours. After completing the 24-hour incubation, pH, ammonia nitrogen (NH3—N), dry matter digestibility, neutral detergent fiber digestibility, volatile fatty acids (VFA), and the microbiome were analyzed.
(§3) Data conforming to normal distribution and homogeneity of variance were analyzed using the GLIMMIX procedure of SAS and Tukey's HSD test. […] Differences in the overall bacteriota and their functional profiles were analyzed using PERMANOVA. Differentially abundant microbial biomarkers were identified using multivariable association analysis with the MaAsLin2 R package, based on relatively abundant bacterial taxa and predicted microbial functions.

Total bacteria = test: qPCR absolute quantification of total bacteria after in vitro rumen incubation; assay type: cell-based, rumen fluid of Hanwoo cows; details: 0.2 mmol/L, 24 h
Method: as §1, §2
(§4) Metagenomic DNA was extracted using the RBB+C method, followed by qPCR analysis and microbiome analysis. Microbial functions were predicted using PICRUSt2. Taxonomic drivers of differentially enriched MetaCyc pathways were identified using Fish Taco (Functional Shifts' Taxonomic Contributor).
as §3
(§5) For the control group and the five experimental groups (acrylamide, chloroacetamide, glycolamide, iodoacetamide, and propionamide), the effects of the amide compounds on the absolute quantification of total bacteria, methanogens, protozoa, and specific cellulolytic bacterial species (Fibrobacter succinogenes, Ruminococcus flavefaciens, Ruminococcus albus, and Prevotella ruminicola) are presented in Table 3 below as quantitative real-time PCR data.

Fibrobacter succinogenes = test: qPCR absolute quantification of Fibrobacter succinogenes after in vitro rumen incubation; assay type: cell-based; details: 0.2 mmol/L, 24 h
Method: as §1, §2, §4, §3, §5

Ruminococcus albus = test: qPCR absolute quantification of Ruminococcus albus after in vitro rumen incubation; assay type: cell-based; details: 0.2 mmol/L, 24 h
Method: as §1, §2, §4, §3, §5

Total protozoa = test: qPCR absolute quantification of protozoa after in vitro rumen incubation; assay type: cell-based, rumen fluid of Hanwoo cows; details: 0.2 mmol/L, 24 h
Method: as §1, §2, §4, §3, §5

rumen microbiome = test: Alpha-diversity measurements of the rumen microbiome; assay type: cell-based, rumen fluid of Hanwoo cows; details: 0.2 mmol/L, 24 h
Method: as §1, §2, §4, §3
The alpha-diversity measurements for the control group and the five experimental groups (acrylamide, chloroacetamide, glycolamide, iodoacetamide, and propionamide) are presented in Table 4 below.

Total methanogen = test: qPCR absolute quantification of methanogens after in vitro rumen incubation; assay type: cell-based, rumen fluid of Hanwoo cows; details: 0.2 mmol/L, 24 h
Method: as §1, §2, §4, §3, §5

[2] = test system: Ruminococcus flavefaciens; test: qPCR absolute quantification of Ruminococcus flavefaciens after in vitro rumen incubation; assay type: cell-based; details: 0.2 mmol/L, 24 h
Method: as §1, §2, §4, §3, §5

Prevotella ruminicola = test: qPCR absolute quantification of Prevotella ruminicola after in vitro rumen incubation; assay type: cell-based; details: 0.2 mmol/L, 24 h
Method: as §1, §2, §4, §3, §5

rumen microbiota = test: Differentially abundant genera and species in response to haloacetamide treatment; taxonomic drivers; assay type: cell-based, rumen fluid of Hanwoo cows; details: in words
Method: Rumen fluid was sampled from Hanwoo cows at the Nonghyup Research Farm in Anseong, Gyeonggi Province, and mixed with buffer at a ratio of 1:2 within 1 hour of sampling. Oat hay was used as the forage, and pelleted feed for the middle fattening period was used as the concentrate. After grinding, the forage and concentrate were mixed at a ratio of 1:1 after passing through a 1-mm screen. 50 ml of culture medium was dispensed into 0.5 g of dry matter, and the control group and the five experimental groups (acrylamide, chloroacetamide, glycolamide, iodoacetamide, and propionamide) were each incubated for 24 hours with five replicates. […]
as §2, with “analyzed. […]” for “analyzed.”
Data conforming to normal distribution and homogeneity of variance were analyzed using the GLIMMIX procedure of SAS and Tukey's HSD test. […] Differences in the overall bacteriota and their functional profiles were analyzed using PERMANOVA. […]

Structure (SMILES)	A:P ratio (acetate:propionate ratio) (rumen fluid)	DMD (dry matter digestibility) (rumen fluid)	NDFD (neutral detergent fiber digestibility) (rumen fluid)	NH3—N (ammonia nitrogen) (rumen fluid)	pH (rumen fluid)	Acetate (rumen fluid; VFA composition)	Butyrate (rumen fluid; VFA composition)	Isobutyrate (rumen fluid; VFA composition) [%]	Isovalerate (rumen fluid; VFA composition)	Propionate (rumen fluid; VFA composition)	Valerate (rumen fluid; VFA composition)	Acetate (rumen fluid; concentration)	Butyrate (rumen fluid; concentration)	Isobutyrate (rumen fluid; concentration)	Isovalerate (rumen fluid; concentration)	Propionate (rumen fluid; concentration)	Total VFA (total volatile fatty acids) (rumen fluid; concentration)	Valerate (rumen fluid; concentration) [mM]	CH4 (methane production per gram of degraded dry matter) (rumen fluid)	CH4 (methane production) (rumen fluid)	further results
O=[N+]([O-])OCCCO [3-NOP, 3-nitrooxypropanol]																					toxicity / safety [1]: issues related to residues in the animal body and safety
C=CC(N)=O [AA, acrylamide]	3.03^A	78.14^AB %	42.04^B %	16.61^A mg/dL	6.21	61.85^A %	13.87^B %	0.88	1.23^ABC %	20.42^C %	1.76^B %	43.81^A mM	9.82^AB mM	0.62^A mM	0.87^A mM	14.45^AB mM	70.82^A mM	1.24	29.06^A mL/g dDM	11.35^A mL	TGP (total gas production) (rumen fluid): 145.83^A mL; Total bacteria (absolute quantification, qPCR) (Total bacteria): 10.30^AB; Fibrobacter succinogenes (absolute quantification, qPCR) (Fibrobacter succinogenes): 9.39^C; Ruminococcus albus (absolute quantification, qPCR) (Ruminococcus albus): 7.77^B; Total protozoa (absolute quantification, qPCR) (Total protozoa): 9.78; Chao1 (rumen microbiome): 284.8^B; Evenness (rumen microbiome): 0.8823^B; Observed features (rumen microbiome): 284.8^B; Shannon (rumen microbiome): 7.1896^B; Simpson (rumen microbiome): 0.9883^B; Total methanogen (absolute quantification, qPCR) (Total methanogen): 8.38^A; Ruminococcus flavefaciens (absolute quantification, qPCR) [2]: 8.31^B; Prevotella ruminicola (absolute quantification, qPCR) (Prevotella ruminicola): 9.44^C
NC(=O)CCl [CLA, 2-chloroacetamide]	2.34^B	77.82^AB %	43.61^B %	13.90^B mg/dL	6.19	55.96^B %	16.30^A %	0.80	1.09^BC %	23.89^B %	1.95^AB %	35.41^BC mM	10.25^A mM	0.50^BC mM	0.68^B mM	15.07^AB mM	63.14^AB mM	1.22	10.71^C mL/g dDM	4.17^C mL	differentially abundant bacteria (rumen microbiota): increases bacteria belonging to the genera Fibrobacter, Anaeroplasma, Treponema, and Succinivibrio, and the species Ruminococcus albus; methane-reducing effects (rumen fluid): excellent methane-reducing effects; TGP (total gas production) (rumen fluid): 134.49^B mL; Total bacteria (absolute quantification, qPCR) (Total bacteria): 10.28^B; Fibrobacter succinogenes (absolute quantification, qPCR) (Fibrobacter succinogenes): 9.54^B; Ruminococcus albus (absolute quantification, qPCR) (Ruminococcus albus): 7.96^A; Total protozoa (absolute quantification, qPCR) (Total protozoa): 9.77; Chao1 (rumen microbiome): 382.3^AB; Evenness (rumen microbiome): 0.8847^AB; Observed features (rumen microbiome): 380.8^AB; Shannon (rumen microbiome): 7.5719^AB; Simpson (rumen microbiome): 0.9903^AB; Total methanogen (absolute quantification, qPCR) (Total methanogen): 8.05^AB; Ruminococcus flavefaciens (absolute quantification, qPCR) [2]: 8.27^B; Prevotella ruminicola (absolute quantification, qPCR) (Prevotella ruminicola): 9.58^B
NC(=O)CO [GA, glycolamide]	2.92^A	79.40^A %	40.82^B %	14.76^AB mg/dL	6.22	60.74^A %	14.30^B %	0.93	1.32^A %	20.83^C %	1.88^AB %	37.24^ABC mM	8.74^B mM	0.57^AB mM	0.80^A mM	12.77^B mM	61.27^AB mM	1.15	26.85^B mL/g dDM	10.65^B mL	TGP (total gas production) (rumen fluid): 141.74^A mL; Total bacteria (absolute quantification, qPCR) (Total bacteria): 10.25^B; Fibrobacter succinogenes (absolute quantification, qPCR) (Fibrobacter succinogenes): 9.36^C; Ruminococcus albus (absolute quantification, qPCR) (Ruminococcus albus): 7.71^B; Total protozoa (absolute quantification, qPCR) (Total protozoa): 9.69; Chao1 (rumen microbiome): 436.4^AB; Evenness (rumen microbiome): 0.8956^A; Observed features (rumen microbiome): 435.6^AB; Shannon (rumen microbiome): 7.8466^A; Simpson (rumen microbiome): 0.9927^A; Total methanogen (absolute quantification, qPCR) (Total methanogen): 8.33^A; Ruminococcus flavefaciens (absolute quantification, qPCR) [2]: 8.29^B; Prevotella ruminicola (absolute quantification, qPCR) (Prevotella ruminicola): 9.42^C
NC(=O)CI [IA, iodoacetamide]	1.89^C	76.18^B %	47.83^A %	13.16^B mg/dL	6.19	52.09^C %	16.51^A %	0.76	1.02^C %	27.56^A %	2.06^A %	29.92^C mM	9.45^AB mM	0.43^C mM	0.58^B mM	15.80^A mM	59.25^B mM	1.18	0.60^D mL/g dDM	0.23^D mL	differentially abundant bacteria (rumen microbiota): increases bacteria belonging to the genera Fibrobacter, Pseudobutyrivibrio, and Treponema, and the species Ruminococcus flavefaciens; methane-reducing effects (rumen fluid): excellent methane-reducing effects; TGP (total gas production) (rumen fluid): 129.37^B mL; Total bacteria (absolute quantification, qPCR) (Total bacteria): 10.38^A; Fibrobacter succinogenes (absolute quantification, qPCR) (Fibrobacter succinogenes): 9.79^A; Ruminococcus albus (absolute quantification, qPCR) (Ruminococcus albus): 7.83^AB; Total protozoa (absolute quantification, qPCR) (Total protozoa): 9.68; Chao1 (rumen microbiome): 525.3^A; Evenness (rumen microbiome): 0.8895^AB; Observed features (rumen microbiome): 520.6^A; Shannon (rumen microbiome): 8.0215^A; Simpson (rumen microbiome): 0.9925^A; Total methanogen (absolute quantification, qPCR) (Total methanogen): 7.74^B; Ruminococcus flavefaciens (absolute quantification, qPCR) [2]: 8.51^A; Prevotella ruminicola (absolute quantification, qPCR) (Prevotella ruminicola): 9.72^A
CCC(N)=O [PA, propionamide]	2.96^A	78.34^AB %	41.80^B %	16.50^A mg/dL	6.22	60.97^A %	14.31^B %	0.92	1.30^AB %	20.64^C %	1.86^AB %	38.55^AB mM	9.04^AB mM	0.58^AB mM	0.82^A mM	13.04^B mM	63.20^AB mM	1.17	28.32^AB mL/g dDM	11.09^AB mL	TGP (total gas production) (rumen fluid): 143.63^A mL; Total bacteria (absolute quantification, qPCR) (Total bacteria): 10.27^B; Fibrobacter succinogenes (absolute quantification, qPCR) (Fibrobacter succinogenes): 9.35^C; Ruminococcus albus (absolute quantification, qPCR) (Ruminococcus albus): 7.71^B; Total protozoa (absolute quantification, qPCR) (Total protozoa): 9.79; Chao1 (rumen microbiome): 406.2^AB; Evenness (rumen microbiome): 0.8873^AB; Observed features (rumen microbiome): 405.6^AB; Shannon (rumen microbiome): 7.6692^A; Simpson (rumen microbiome): 0.9913^AB; Total methanogen (absolute quantification, qPCR) (Total methanogen): 8.42^A; Ruminococcus flavefaciens (absolute quantification, qPCR) [2]: 8.31^B; Prevotella ruminicola (absolute quantification, qPCR) (Prevotella ruminicola): 9.45^C
BrC(Br)Br [bromoform]																					toxicity / safety [1]: carcinogenic substance
